Active and inactive are the calls of the source. No rule for the calls is given here.
Tested on: CCRIS mutagenicity, Ames/micronucleus/aberration tests
Assay: CCRIS mutagenicity studies

Measured: mutagenic call

CCCCC(CC)COC(=O)c1ccccc1C(=O)OCC(CC)CCCC (stereo not drawn)
inactive: End Point: IN VITRO MICRONUCLEUS, Test System: V79 CELLS, Metabolic Activation: NONE inactive; negative | End Point: IN VITRO MICRONUCLEUS, Test System: V79 CELLS, Metabolic Activation: RAT, LIVER, S-9, AROCLOR 1254 inactive; negative | End Point: IN VIVO MICRONUCLEUS, Test System: HEPATOCYTES, Species: RAT, Strain/Sex: FISHER 344 OR SD/MALE, Route: ORAL OR IP inactive; negative | End Point: IN VIVO MICRONUCLEUS, Test System: PERIPHERAL BLOOD RETICULOCYTES, Species: RAT, Strain/Sex: FISHER 344 OR SD/MALE, Route: ORAL OR IP inactive; negative | Test System: AMES SALMONELLA TYPHIMURIUM, Strain/Indicator: TA97, Metabolic Activation: HAMSTER LIVER S-9, AROCLOR 1254 (10 OR 30%), Method: PREINCUBATION inactive; negative | Test System: AMES SALMONELLA TYPHIMURIUM, Strain/Indicator: TA97, Metabolic Activation: NONE, Method: PREINCUBATION inactive; negative | Test System: AMES SALMONELLA TYPHIMURIUM, Strain/Indicator: TA97, Metabolic Activation: NONE, Method: STANDARD PLATE inactive; negative | Test System: AMES SALMONELLA TYPHIMURIUM, Strain/Indicator: TA97, Metabolic Activation: RAT LIVER S-9, AROCLOR 1254 (10 OR 30%), Method: PREINCUBATION inactive; negative | Test System: AMES SALMONELLA TYPHIMURIUM, Strain/Indicator: TA97, Metabolic Activation: S-9, Method: STANDARD PLATE inactive; negative | Test System: AMES SALMONELLA TYPHIMURIUM, Strain/Indicator: TA98, Metabolic Activation: HAMSTER LIVER S-9, AROCLOR 1254 (10 OR 30%), Method: PREINCUBATION inactive; negative | Test System: AMES SALMONELLA TYPHIMURIUM, Strain/Indicator: TA98, Metabolic Activation: HAMSTER, LIVER, S-9, AROCLOR 1254 (10%), Method: PREINCUBATION inactive; negative | Test System: AMES SALMONELLA TYPHIMURIUM, Strain/Indicator: TA98, Metabolic Activation: NONE, Method: FLUCTUATION (MICROTITER) inactive; negative | Test System: AMES SALMONELLA TYPHIMURIUM, Strain/Indicator: TA98, Metabolic Activation: NONE, Method: STANDARD PLATE inactive; negative | Test System: AMES SALMONELLA TYPHIMURIUM, Strain/Indicator: TA98, Metabolic Activation: RAT LIVER S-9, AROCLOR 1254 (10 OR 30%), Method: PREINCUBATION inactive; negative | Test System: AMES SALMONELLA TYPHIMURIUM, Strain/Indicator: TA98, Metabolic Activation: RAT LIVER S-9, AROCLOR 1254, Method: FLUCTUATION (MICROTITER) inactive; negative | Test System: AMES SALMONELLA TYPHIMURIUM, Strain/Indicator: TA98, Metabolic Activation: RAT LIVER S-9, PHENOBARBITAL AND BETA-NAPHTHOFLAVONE, Method: PREINCUBATION inactive; negative | Test System: AMES SALMONELLA TYPHIMURIUM, Strain/Indicator: TA98, Metabolic Activation: RAT, LIVER, S-9, AROCLOR 1254 (10%), Method: PREINCUBATION inactive; negative | Test System: AMES SALMONELLA TYPHIMURIUM, Strain/Indicator: TA98, Metabolic Activation: RAT, LIVER, S-9, AROCLOR 1254, Method: STANDARD PLATE inactive; negative | Test System: AMES SALMONELLA TYPHIMURIUM, Strain/Indicator: TA98, Metabolic Activation: S-9, Method: STANDARD PLATE inactive; negative | Test System: AMES SALMONELLA TYPHIMURIUM, Strain/Indicator: TA100, Metabolic Activation: HAMSTER LIVER S-9, AROCLOR 1254 (10 OR 30%), Method: PREINCUBATION inactive; negative | Test System: AMES SALMONELLA TYPHIMURIUM, Strain/Indicator: TA100, Metabolic Activation: HAMSTER, LIVER, S-9, AROCLOR 1254 (10%), Method: PREINCUBATION inactive; negative | Test System: AMES SALMONELLA TYPHIMURIUM, Strain/Indicator: TA100, Metabolic Activation: NONE, Method: STANDARD PLATE inactive; negative | Test System: AMES SALMONELLA TYPHIMURIUM, Strain/Indicator: TA100, Metabolic Activation: RAT LIVER S-9, AROCLOR 1254 (10 OR 30%), Method: PREINCUBATION inactive; negative | Test System: AMES SALMONELLA TYPHIMURIUM, Strain/Indicator: TA100, Metabolic Activation: RAT LIVER S-9, PHENOBARBITAL AND BETA-NAPHTHOFLAVONE, Method: PREINCUBATION inactive; negative | Test System: AMES SALMONELLA TYPHIMURIUM, Strain/Indicator: TA100, Metabolic Activation: RAT, LIVER, S-9, AROCLOR 1254 (10%), Method: PREINCUBATION inactive; negative | Test System: AMES SALMONELLA TYPHIMURIUM, Strain/Indicator: TA100, Metabolic Activation: RAT, LIVER, S-9, AROCLOR 1254, Method: STANDARD PLATE inactive; negative | Test System: AMES SALMONELLA TYPHIMURIUM, Strain/Indicator: TA100, Metabolic Activation: S-9, Method: STANDARD PLATE inactive; negative | Test System: AMES SALMONELLA TYPHIMURIUM, Strain/Indicator: TA102, Metabolic Activation: CO631 CELLS, Method: STANDARD PLATE inactive; negative | Test System: AMES SALMONELLA TYPHIMURIUM, Strain/Indicator: TA102, Metabolic Activation: NONE, Method: STANDARD PLATE inactive; negative | Test System: AMES SALMONELLA TYPHIMURIUM, Strain/Indicator: TA102, Metabolic Activation: PANCREATIN, Method: STANDARD PLATE inactive; negative | Test System: AMES SALMONELLA TYPHIMURIUM, Strain/Indicator: TA102, Metabolic Activation: PORCINE, PANCREAS, LIPASES, Method: STANDARD PLATE inactive; negative | Test System: AMES SALMONELLA TYPHIMURIUM, Strain/Indicator: TA102, Metabolic Activation: RAT HEPATOCYTES, Method: STANDARD PLATE inactive; negative | Test System: AMES SALMONELLA TYPHIMURIUM, Strain/Indicator: TA102, Metabolic Activation: RAT LIVER S-9, PHENOBARBITAL AND 5,6-BENZOFLAVONE, Method: STANDARD PLATE inactive; negative | Test System: AMES SALMONELLA TYPHIMURIUM, Strain/Indicator: TA102, Metabolic Activation: S-9, Method: STANDARD PLATE inactive; negative | Test System: AMES SALMONELLA TYPHIMURIUM, Strain/Indicator: TA1535, Metabolic Activation: HAMSTER LIVER S-9, AROCLOR 1254 (10 OR 30%), Method: PREINCUBATION inactive; negative | Test System: AMES SALMONELLA TYPHIMURIUM, Strain/Indicator: TA1535, Metabolic Activation: HAMSTER, LIVER, S-9, AROCLOR 1254 (10%), Method: PREINCUBATION inactive; negative | Test System: AMES SALMONELLA TYPHIMURIUM, Strain/Indicator: TA1535, Metabolic Activation: NONE, Method: STANDARD PLATE inactive; negative | Test System: AMES SALMONELLA TYPHIMURIUM, Strain/Indicator: TA1535, Metabolic Activation: RAT LIVER S-9, AROCLOR 1254 (10 OR 30%), Method: PREINCUBATION inactive; negative

Source: PubChem BioAssay AID1259407 (Chemical Carcinogenesis Research Information System (CCRIS), 2018)
